Settings: 1.0% DMSO, 24-hour incubation at ambient temperature, maximum theoretical 100 μM; for pH 2 solubility: 0.1N HCl, first value of the cell; for pH 7 solubility: 1×PBS buffer (pH 7.4), second value of the cell

| Compound | pH 2 solubility | pH 7 solubility |
| --- | --- | --- |
| CN(CCCN)C(=O)N(c1nn(CC(F)(F)F)c2c(-c3ccc(C#CC(C)(C)S(C)(=O)=O)nc3[C@H](Cc3cc(F)cc(F)c3)NC(=O)Cn3nc(C(F)(F)F)c4c3C(F)(F)[C@@H]3C[C@H]43)ccc(Cl)c12)S(C)(=O)=O [Compound 79, N—((S)-1-(3-(3-(N-((3-aminopropyl)(methyl)carbamoyl)methylsulfonamido)-4-chloro-1-(2,2,2-trifluoroethyl)-1H-indazol-7-yl)-6-(3-methyl-3-(methylsulfonyl)but-1-yn-1-yl)pyridin-2-yl)-2-(3,5-difluorophenyl)ethyl)-2-((3bS,4aR)-5,5-difluoro-3-(trifluoromethyl)-3b,4,4a,5-tetrahydro-1H-cyclopropa[3,4]cyclopenta[1,2-c]pyrazol-1-yl)acetamide] | 59 μM | 14 μM |
| CN(C(=O)N(c1nn(CC(F)(F)F)c2c(-c3ccc(C#CC(C)(C)S(C)(=O)=O)nc3[C@H](Cc3cc(F)cc(F)c3)NC(=O)Cn3nc(C(F)(F)F)c4c3C(F)(F)[C@@H]3C[C@H]43)ccc(Cl)c12)S(C)(=O)=O)C(C)(C)C(=O)OCOP(=O)(O)O [Compound 85, (phosphonooxy)methyl 2-(3-(4-chloro-7-(2-((S)-1-(2-((3bS,4aR)-5,5-difluoro-3-(trifluoromethyl)-3b,4,4a,5-tetrahydro-1H-cyclopropa[3,4]cyclopenta[1,2-c]pyrazol-1-yl)acetamido)-2-(3,5-difluorophenyl)ethyl)-6-(3-methyl-3-(methylsulfonyl)but-1-yn-1-yl)pyridin-3-yl)-1-(2,2,2-trifluoroethyl)-1H-indazol-3-yl)-1-methyl-3-(methylsulfonyl)ureido)-2-methylpropanoate] | 5 μM | 65 μM |
| COC(=O)N(c1nn(CC(F)(F)F)c2c(-c3ccc(C#CC(C)(C)S(C)(=O)=O)nc3[C@H](Cc3cc(F)cc(F)c3)NC(=O)Cn3nc(C(F)(F)F)c4c3C(F)(F)[C@@H]3C[C@H]43)ccc(Cl)c12)S(C)(=O)=O [Compound 89, methyl (4-chloro-7-(2-((S)-1-(2-((3bS,4aR)-5,5-difluoro-3-(trifluoromethyl)-3b,4,4a,5-tetrahydro-1H-cyclopropa[3,4]cyclopenta[1,2-c]pyrazol-1-yl)acetamido)-2-(3,5-difluorophenyl)ethyl)-6-(3-methyl-3-(methylsulfonyl)but-1-yn-1-yl)pyridin-3-yl)-1-(2,2,2-trifluoroethyl)-1H-indazol-3-yl)(methylsulfonyl)carbamate] | 3/3 μM | 3/3 μM |
| CC(C)(C#Cc1ccc(-c2ccc(Cl)c3c(N(C(=O)OCOC(=O)/C=C/C(=O)O)S(C)(=O)=O)nn(CC(F)(F)F)c23)c([C@H](Cc2cc(F)cc(F)c2)NC(=O)Cn2nc(C(F)(F)F)c3c2C(F)(F)[C@@H]2C[C@H]32)n1)S(C)(=O)=O [Compound 93, (E)-4-((((4-chloro-7-(2-((S)-1-(2-((3bS,4aR)-5,5-difluoro-3-(trifluoromethyl)-3b,4,4a,5-tetrahydro-1H-cyclopropa[3,4]cyclopenta[1,2-c]pyrazol-1-yl)acetamido)-2-(3,5-difluorophenyl)ethyl)-6-(3-methyl-3-(methylsulfonyl)but-1-yn-1-yl)pyridin-3-yl)-1-(2,2,2-trifluoroethyl)-1H-indazol-3-yl)(methylsulfonyl)carbamoyl)oxy)methoxy)-4-oxobut-2-enoic acid] | 1 μM | 22 μM |
| C[C@H](O)[C@H](C)OC(=O)N(c1nn(CC(F)(F)F)c2c(-c3ccc(C#CC(C)(C)S(C)(=O)=O)nc3[C@H](Cc3cc(F)cc(F)c3)NC(=O)Cn3nc(C(F)(F)F)c4c3C(F)(F)[C@@H]3C[C@H]43)ccc(Cl)c12)S(C)(=O)=O [Compound 95, (2S,3S)-3-hydroxybutan-2-yl (4-chloro-7-(2-((S)-1-(2-((3bS,4aR)-5,5-difluoro-3-(trifluoromethyl)-3b,4,4a,5-tetrahydro-1H-cyclopropa[3,4]cyclopenta[1,2-c]pyrazol-1-yl)acetamido)-2-(3,5-difluorophenyl)ethyl)-6-(3-methyl-3-(methylsulfonyl)but-1-yn-1-yl)pyridin-3-yl)-1-(2,2,2-trifluoroethyl)-1H-indazol-3-yl)(methylsulfonyl)carbamate] | 1 μM | 3 μM |
| C[C@H](OC(=O)N(c1nn(CC(F)(F)F)c2c(-c3ccc(C#CC(C)(C)S(C)(=O)=O)nc3[C@H](Cc3cc(F)cc(F)c3)NC(=O)Cn3nc(C(F)(F)F)c4c3C(F)(F)[C@@H]3C[C@H]43)ccc(Cl)c12)S(C)(=O)=O)[C@H](C)OP(=O)(O)O [Compound 96, (2S,3S)-3-(phosphonooxy)butan-2-yl (4-chloro-7-(2-((S)-1-(2-((3bS,4aR)-5,5-difluoro-3-(trifluoromethyl)-3b,4,4a,5-tetrahydro-1H-cyclopropa[3,4]cyclopenta[1,2-c]pyrazol-1-yl)acetamido)-2-(3,5-difluorophenyl)ethyl)-6-(3-methyl-3-(methylsulfonyl)but-1-yn-1-yl)pyridin-3-yl)-1-(2,2,2-trifluoroethyl)-1H-indazol-3-yl)(methylsulfonyl)carbamate] | 1 μM | 99 μM |
| CC(C)(C#Cc1ccc(-c2ccc(Cl)c3c(N(C(=O)OCCCO)S(C)(=O)=O)nn(CC(F)(F)F)c23)c([C@H](Cc2cc(F)cc(F)c2)NC(=O)Cn2nc(C(F)(F)F)c3c2C(F)(F)[C@@H]2C[C@H]32)n1)S(C)(=O)=O [Compound 97, 3-hydroxypropyl (4-chloro-7-(2-((S)-1-(2-((3bS,4aR)-5,5-difluoro-3-(trifluoromethyl)-3b,4,4a,5-tetrahydro-1H-cyclopropa[3,4]cyclopenta[1,2-c]pyrazol-1-yl)acetamido)-2-(3,5-difluorophenyl)ethyl)-6-(3-methyl-3-(methylsulfonyl)but-1-yn-1-yl)pyridin-3-yl)-1-(2,2,2-trifluoroethyl)-1H-indazol-3-yl)(methylsulfonyl)carbamate] | 1 μM | 2 μM |

Continued, values first:

| pH 2 solubility | pH 7 solubility | Compound |
| --- | --- | --- |
| 1 μM | 100 μM | CC(C)(C#Cc1ccc(-c2ccc(Cl)c3c(N(C(=O)OCCCOP(=O)(O)O)S(C)(=O)=O)nn(CC(F)(F)F)c23)c([C@H](Cc2cc(F)cc(F)c2)NC(=O)Cn2nc(C(F)(F)F)c3c2C(F)(F)[C@@H]2C[C@H]32)n1)S(C)(=O)=O [Compound 98, 3-(phosphonooxy)propyl (4-chloro-7-(2-((S)-1-(2-((3bS,4aR)-5,5-difluoro-3-(trifluoromethyl)-3b,4,4a,5-tetrahydro-1H-cyclopropa[3,4]cyclopenta[1,2-c]pyrazol-1-yl)acetamido)-2-(3,5-difluorophenyl)ethyl)-6-(3-methyl-3-(methylsulfonyl)but-1-yn-1-yl)pyridin-3-yl)-1-(2,2,2-trifluoroethyl)-1H-indazol-3-yl)(methylsulfonyl)carbamate] |
| 1/1 μM | 1/1 μM | CC(C)(C#Cc1ccc(-c2ccc(Cl)c3c(N(C(=O)OCCO)S(C)(=O)=O)nn(CC(F)(F)F)c23)c([C@H](Cc2cc(F)cc(F)c2)NC(=O)Cn2nc(C(F)(F)F)c3c2C(F)(F)[C@@H]2C[C@H]32)n1)S(C)(=O)=O [Compound 99, 2-hydroxyethyl (4-chloro-7-(2-((S)-1-(2-((3bS,4aR)-5,5-difluoro-3-(trifluoromethyl)-3b,4,4a,5-tetrahydro-1H-cyclopropa[3,4]cyclopenta[1,2-c]pyrazol-1-yl)acetamido)-2-(3,5-difluorophenyl)ethyl)-6-(3-methyl-3-(methylsulfonyl)but-1-yn-1-yl)pyridin-3-yl)-1-(2,2,2-trifluoroethyl)-1H-indazol-3-yl)(methylsulfonyl)carbamate] |
| 2 μM | 100 μM | CC(C)(C#Cc1ccc(-c2ccc(Cl)c3c(N(C(=O)OCCOP(=O)(O)O)S(C)(=O)=O)nn(CC(F)(F)F)c23)c([C@H](Cc2cc(F)cc(F)c2)NC(=O)Cn2nc(C(F)(F)F)c3c2C(F)(F)[C@@H]2C[C@H]32)n1)S(C)(=O)=O [Compound 100, 2-(phosphonooxy)ethyl (4-chloro-7-(2-((S)-1-(2-((3bS,4aR)-5,5-difluoro-3-(trifluoromethyl)-3b,4,4a,5-tetrahydro-1H-cyclopropa[3,4]cyclopenta[1,2-c]pyrazol-1-yl)acetamido)-2-(3,5-difluorophenyl)ethyl)-6-(3-methyl-3-(methylsulfonyl)but-1-yn-1-yl)pyridin-3-yl)-1-(2,2,2-trifluoroethyl)-1H-indazol-3-yl)(methylsulfonyl)carbamate] |
| 1 μM | 100 μM | CC(C)(C#Cc1ccc(-c2ccc(Cl)c3c(N(C(=O)OCCCCOP(=O)(O)O)S(C)(=O)=O)nn(CC(F)(F)F)c23)c([C@H](Cc2cc(F)cc(F)c2)NC(=O)Cn2nc(C(F)(F)F)c3c2C(F)(F)[C@@H]2C[C@H]32)n1)S(C)(=O)=O [Compound 102, 4-(phosphonooxy)butyl (4-chloro-7-(2-((S)-1-(2-((3bS,4aR)-5,5-difluoro-3-(trifluoromethyl)-3b,4,4a,5-tetrahydro-1H-cyclopropa[3,4]cyclopenta[1,2-c]pyrazol-1-yl)acetamido)-2-(3,5-difluorophenyl)ethyl)-6-(3-methyl-3-(methylsulfonyl)but-1-yn-1-yl)pyridin-3-yl)-1-(2,2,2-trifluoroethyl)-1H-indazol-3-yl)(methylsulfonyl)carbamate] |
| 1/1 μM | 1/1 μM | CC(C)(C#Cc1ccc(-c2ccc(Cl)c3c(N(C(=O)OCCCCCO)S(C)(=O)=O)nn(CC(F)(F)F)c23)c([C@H](Cc2cc(F)cc(F)c2)NC(=O)Cn2nc(C(F)(F)F)c3c2C(F)(F)[C@@H]2C[C@H]32)n1)S(C)(=O)=O [Compound 103, 5-hydroxypentyl (4-chloro-7-(2-((S)-1-(2-((3bS,4aR)-5,5-difluoro-3-(trifluoromethyl)-3b,4,4a,5-tetrahydro-1H-cyclopropa[3,4]cyclopenta[1,2-c]pyrazol-1-yl)acetamido)-2-(3,5-difluorophenyl)ethyl)-6-(3-methyl-3-(methylsulfonyl)but-1-yn-1-yl)pyridin-3-yl)-1-(2,2,2-trifluoroethyl)-1H-indazol-3-yl)(methylsulfonyl)carbamate] |

— US12404262B2 (priority 2021, dated 2025)
